#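 Five concentrations, 48 hours, 96-well plates. GI50 = concentration required for 50% inhibition of growth.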 Activity calls are given as the source filed them. Rule as the data show it: active = GI50 up to about 1.1 µM and inactive = higher.
# Tests used:
# Assay in all cases: inhibition of tumour cell growth, NCI panel, 48 h
# [1] = tested on: HOP-62
# [2] = tested on: HL-60
# [3] = tested on: MDA-MB-435
# [4] = tested on: SK-MEL-5
# [5] = tested on: SK-MEL-28
# [6] = tested on: ACHN
# [7] = tested on: MCF7
# [8] = tested on: COLO 205
# [9] = tested on: NCI-H23
# [10] = tested on: RXF 393
# [11] = tested on: SF-295
# [12] = tested on: SR
# [13] = tested on: MDA-MB-231
# [14] = tested on: OVCAR-8
# [15] = tested on: PC-3
# [16] = tested on: IGROV-1
# [17] = tested on: 786-0
# [18] = tested on: A549
# [19] = tested on: SNB-19
# [20] = tested on: HT-29
# [21] = tested on: SN12C
# [22] = tested on: HCT-15
# [23] = tested on: NCI-H460
# [24] = tested on: OVCAR-3
# [25] = tested on: MOLT-4
# [26] = tested on: TK-10
# [27] = tested on: KM12
# [28] = tested on: RPMI-8226
# [29] = tested on: A498
# [30] = tested on: M14
# [31] = tested on: OVCAR-5
# [32] = tested on: UO-31
# [33] = tested on: HCC 2998
# [34] = tested on: T47D
# [35] = tested on: SW-620
# [36] = tested on: EKVX
# [37] = tested on: SF-539
# [38] = tested on: CCRF-CEM
# [39] = tested on: SF-268
# [40] = tested on: NCI-H226
# [41] = tested on: U-251
# [42] = tested on: UACC-257
# [43] = tested on: NCI/ADR-RES
# [44] = tested on: Malme-3M
# [45] = tested on: BT-549
# [46] = tested on: OVCAR-4
# [47] = tested on: CAKI-1
# [48] = tested on: UACC-62
# [49] = tested on: K562
# [50] = tested on: Hs-578T
# [51] = tested on: DU-145
# [52] = tested on: NCI-H522
# [53] = tested on: HOP-92
# [54] = tested on: SK-MEL-2
# [55] = tested on: MDA-N
# [56] = tested on: SNB-75
# [57] = tested on: HCT-116
# [58] = tested on: SK-OV-3
# [59] = tested on: LOX IMVI
compound,measurement,setting,value
O=C1OC(C(O)CO)C(C(O)CO)OC1=O (stereo unspecified),GI50,[1],> 10 µM (inactive)
same,GI50,[2],> 10 µM (inactive)
same,GI50,[3],> 10 µM (inactive)
same,GI50,[4],> 10 µM (inactive)
same,GI50,[5],> 10 µM (inactive)
same,GI50,[6],> 10 µM (inactive)
same,GI50,[7],> 10 µM (inactive)
same,GI50,[8],> 10 µM (inactive)
same,GI50,[9],> 10 µM (inactive)
same,GI50,[10],> 10 µM (inactive)
same,GI50,[11],> 10 µM (inactive)
same,GI50,[12],> 10 µM (inactive)
same,GI50,[13],> 10 µM (inactive)
same,GI50,[14],> 10 µM (inactive)
same,GI50,[15],> 10 µM (inactive)
same,GI50,[16],> 10 µM (inactive)
same,GI50,[17],> 10 µM (inactive)
same,GI50,[18],> 10 µM (inactive)
same,GI50,[19],> 10 µM (inactive)
same,GI50,[20],> 10 µM (inactive)
same,GI50,[21],> 10 µM (inactive)
same,GI50,[22],> 10 µM
same,GI50,[23],> 10 µM (inactive)
same,GI50,[24],> 10 µM (inactive)
same,GI50,[25],> 10 µM (inactive)
same,GI50,[26],> 10 µM (inactive)
same,GI50,[27],> 10 µM (inactive)
same,GI50,[28],> 10 µM (inactive)
same,GI50,[29],> 10 µM (inactive)
same,GI50,[30],> 10 µM (inactive)
same,GI50,[31],> 10 µM (inactive)
same,GI50,[32],> 10 µM (inactive)
same,GI50,[33],> 10 µM (inactive)
same,GI50,[34],> 10 µM (inactive)
same,GI50,[35],> 10 µM (inactive)
same,GI50,[36],> 10 µM (inactive)
same,GI50,[37],> 10 µM (inactive)
same,GI50,[38],> 10 µM (inactive)
same,GI50,[39],> 10 µM (inactive)
same,GI50,[40],> 10 µM (inactive)
same,GI50,[41],> 10 µM (inactive)
same,GI50,[42],> 10 µM (inactive)
same,GI50,[43],> 10 µM (inactive)
same,GI50,[44],> 10 µM (inactive)
same,GI50,[45],> 10 µM (inactive)
same,GI50,[46],> 10 µM (inactive)
same,GI50,[47],> 10 µM (inactive)
same,GI50,[48],> 10 µM (inactive)
same,GI50,[49],> 10 µM (inactive)
same,GI50,[50],> 10 µM (inactive)
C=C(C)CCC(=O)[C@](C)(O)[C@H]1[C@H](O)C[C@@]2(C)[C@@H]3CCc4c(cc(OC5OC(CO)C(O)C(O)C5O)c(O)c4C)C3(C)C(=O)C[C@]12C (stereo partly specified),GI50,[51],> 100 µM (inactive)
same,GI50,[52],> 100 µM (inactive)
same,GI50,[1],> 100 µM (inactive)
same,GI50,[3],> 100 µM (inactive)
same,GI50,[53],> 100 µM (inactive)
same,GI50,[4],> 100 µM (inactive)
same,GI50,[54],> 100 µM (inactive)
same,GI50,[5],> 100 µM (inactive)
same,GI50,[6],> 100 µM (inactive)
same,GI50,[55],> 100 µM (inactive)
same,GI50,[7],> 100 µM (inactive)
same,GI50,[8],> 100 µM (inactive)
same,GI50,[9],> 100 µM (inactive)
same,GI50,[10],> 100 µM (inactive)
same,GI50,[11],> 100 µM (inactive)
same,GI50,[12],> 100 µM (inactive)
same,GI50,[13],> 100 µM (inactive)
same,GI50,[14],> 100 µM (inactive)
same,GI50,[56],> 100 µM (inactive)
same,GI50,[57],> 100 µM (inactive)
same,GI50,[15],> 100 µM (inactive)
same,GI50,[16],> 100 µM (inactive)
same,GI50,[17],> 100 µM (inactive)
same,GI50,[18],> 100 µM (inactive)
same,GI50,[19],> 100 µM (inactive)
same,GI50,[58],> 100 µM (inactive)
same,GI50,[20],> 100 µM (inactive)
same,GI50,[21],> 100 µM (inactive)
same,GI50,[22],> 100 µM
same,GI50,[23],> 100 µM (inactive)
same,GI50,[24],> 100 µM (inactive)
same,GI50,[59],> 100 µM (inactive)
same,GI50,[25],> 100 µM (inactive)
same,GI50,[26],> 100 µM (inactive)
same,GI50,[27],> 100 µM (inactive)
same,GI50,[29],> 100 µM (inactive)
same,GI50,[30],> 100 µM (inactive)
same,GI50,[31],> 100 µM (inactive)
same,GI50,[32],> 100 µM (inactive)
same,GI50,[33],> 100 µM (inactive)
same,GI50,[34],> 100 µM (inactive)
same,GI50,[35],> 100 µM (inactive)
same,GI50,[36],> 100 µM (inactive)
same,GI50,[37],> 100 µM (inactive)
same,GI50,[38],> 100 µM (inactive)
same,GI50,[39],> 100 µM (inactive)
same,GI50,[40],> 100 µM (inactive)
same,GI50,[41],> 100 µM (inactive)
same,GI50,[42],> 100 µM (inactive)
same,GI50,[43],> 100 µM (inactive)
same,GI50,[44],> 100 µM (inactive)
same,GI50,[45],> 100 µM (inactive)
same,GI50,[46],> 100 µM (inactive)
same,GI50,[47],> 100 µM (inactive)
same,GI50,[48],> 100 µM (inactive)
same,GI50,[49],> 100 µM (inactive)

# From ChEMBL document CHEMBL1201862, “PubChem BioAssay data set” (2004)
